# From patent US11421280B2 (DENOVO BIOPHARMA LLC, priority 2016, dated 2022)
# “Also recorded” adds a separate entry of the source.
# Legend:
# [1] = system: cultured cancer cells (colon, NSCLC, glioblastoma, diffuse large B-cell and cutaneous T-cell lymphoma, multiple myeloma, Waldenstrom's macroglobulinemia); conditions: cited from earlier work
# [2] = system: other PKC isoforms (α, γ, ε); conditions: Graff et al. 2005; read-out: IC50s other PKC isoforms (α, γ, ε); cited from earlier work
# DLBCL patients [3] = test: Prelude phase 3 DLBCL maintenance trial, survival analysis by chromaturia and rs309605 genotype; format: in vivo, human
# Description: Prelude trial is a multicenter, phase 3, randomized, double-blind, placebo-controlled trial enrolled patients at high risk of recurrence following rituximab-cyclophosphamide, doxorubicin, vincristine, and prednisone (R-CHOP). […] Primary endpoint was DFS 3 years after the last patient entered treatment (FIG. 1A).
# Unlike most oncology biomarker studies focusing on mutations or target protein overexpression in tumor cells, germline genetic polymorphisms also contribute to the various responses to the same drug in different patients.
# For both rs309605 and rs309604, allele A represents T and allele B represents C. […] A p-value smaller than 5×10^−8 is usually considered the threshold for genome-wide significance.
# To examine whether rs309605 is merely a prognostic biomarker, DNA samples from 238 patients from placebo control group were genotyped at rs309605 using the Taqman SNP assays.
# GBM patients = test: S008 GBM phase 1/2 first line trial; format: in vivo, human
# Description: FIG. 4A is a Kaplan-Meier plot showing time to overall survival in the AA+AB group and BB group. FIG. 4B is a Kaplan-Meier plot showing time to overall survival in the chromaturia group and non-chromaturia group.
# The DNA samples from blood of GBM patients in S008 trials were used to genotype rs309605 by Taqman assay.
# [4] = system: VEGF induced angiogenesis; conditions: oral dosing, plasma exposure similar to human clinical trials; cited from earlier work
# [5] = system: human cancer xenografts (colorectal carcinomas, glioblastomas, diffuse large B-Cell lymphomas, Waldenstrom's macroglobulinemia, multiple myeloma); conditions: single-agent treatment; cited from earlier work
# DLBCL patients [6] = test: S028 phase 2 DLBCL 1st line trial, enzastaurin in combination with R-CHOP; format: in vivo, human
# Description: Thus, subgroup analysis was conducted using both IPI and rs309605 and rs309604.
# [7] = enzastaurin arm, rs309605/rs309604
# [8] = enzastaurin arm, rs309605/rs309604, p-value 5.75×10^−9
smiles,measurement,setting,value
"Cn1cc(C2=C(c3cn(C4CCN(Cc5ccccn5)CC4)c4ccccc34)C(=O)NC2=O)c2ccccc21 [enzastaurin, 3-(1-methyl-1H-indol-3-yl)-4-[1-[1-(pyridin-2-ylmethyl)piperidin-4-yl]-1H-indol-3-yl]-1H-pyrrole-2,5-dione]",intracellular signaling through the PKC and PI3K/AKT pathways,"[1]; clinically relevant concentrations, suppresses phosphorylation of AKT, mTOR, p70S6K, S6, 4EBP1, CREB, GSK3β",blocks intracellular signaling through the PKC and PI3K/AKT pathways
same,tumor cell apoptosis,[1]; cultured cancer cells,induces tumor cell apoptosis
same,tumor cell proliferation,[1]; cultured cancer cells,inhibits tumor cell proliferation
same,IC50,[2],40 to 100 nM
same,"overall survival, AA+AB vs BB genotype in patients without chromaturia",DLBCL patients [3]; 177 enzastaurin treated patients without chromaturia,no significant difference in overall survival
same,Event per 1000 person-month,"DLBCL patients [3]; AA + AB (rs309605), Chrom",0.65 per 1000 person-month
same,Number of events (OS),"DLBCL patients [3]; AA + AB (rs309605), Chrom, N 82",3
same,Event per 1000 person-month,"DLBCL patients [3]; AA + AB (rs309605), Non-Chrom",3.69 per 1000 person-month
same,Number of events (OS),"DLBCL patients [3]; AA + AB (rs309605), Non-Chrom, N 158",27
same,Event per 1000 person-month,"DLBCL patients [3]; All types (AA, AB, BB), Chrom",1.96 per 1000 person-month
same,Number of events (OS),"DLBCL patients [3]; All types (AA, AB, BB), Chrom, N 95",10
same,Event per 1000 person-month,"DLBCL patients [3]; All types (AA, AB, BB), Non-Chrom",4.83 per 1000 person-month
same,Number of events (OS),"DLBCL patients [3]; All types (AA, AB, BB), Non-Chrom, N 187",41
same,"number of patients who survived, AA+AB genotype",DLBCL patients [3]; [7],209
same,"number of patients who survived, BB genotype",DLBCL patients [3]; [7],22
same,"number of patients who had events, AA+AB genotype",DLBCL patients [3]; [8],31
same,"number of patients who had events, BB genotype",DLBCL patients [3]; [8],22
same,"overall survival, AA+AB genotype vs BB genotype","DLBCL patients [3]; enzastaurin treated arm, rs309605 and rs309604",significantly improved survival; also recorded: significant longer overall survival
same,"overall survival, AA+AB genotype at rs309605 with chromaturia","DLBCL patients [3]; interaction of genotype and chromaturia, p value=0.017",best overall survival
same,"overall survival / efficacy, enzastaurin arm vs placebo arm","DLBCL patients [3]; overall patient population, N=504 vs N=254, 500 mg daily oral",failed to demonstrate statistically significant efficacy; also recorded: no significant difference
same,"overall survival, AA or AB genotype vs BB genotype at rs309605",GBM patients,better overall survival
same,"survival, chromaturia vs without chromaturia",GBM patients,significant improved survival
same,VEGF induced angiogenesis,[4],suppresses VEGF induced angiogenesis
same,growth of human cancer xenografts,[5],suppresses growth of multiple human cancer xenografts
same,"survival, AA+AB vs BB genotype at rs309605","DLBCL patients [6]; enzastaurin treatment arm, with R-CHOP",significant better survival
same,"overall survival, enzastaurin arm vs control arm","DLBCL patients [6]; general patient population, with R-CHOP",no significant difference
same,"Progression Free (PFS) survival and overall survival, enzastaurin arm",DLBCL patients [6]; patients AA+AB at rs309605 and rs309604 and IPI>2,superior efficacy
